PubChem BioAssay AID248 (DTP/NCI, 2004)
Values joined by “and” are separate entries in the source; they are usually repeats but may differ in a detail not shown here. Identical values can stand only once. Inconclusive results and toxic doses are left out. Cut-off read from the data, not from the text of the source: active = T/C of 150% or more; inactive = T/C below 125%.

Test system: L1210 leukemia ip in BDF1 mice, survival T/C
Test: NCI In Vivo Anticancer Drug Screen. Data for tumor model L1210 Leukemia (intraperitoneal) in B6D2F1 (BDF1) mice
Settings: endpoint: mean survival time, higher = longer survival
How it was run: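 Survival endpoint. Drug-treated group vs vehicle group, expressed as T divided by C. Tumor passaged by transplantation.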

[1] = dose: 100.0 mg/kg/injection, schedule: Q04DX002 (ip), vehicle: saline
[2] = dose: 200.0 mg/kg/injection, schedule: Q04DX002 (ip), vehicle: saline
[3] = dose: 100.0 mg/kg/injection, schedule: Q01DX009 (ip), vehicle: Klucel (hydroxypropylcellulose) (HPC)
[4] = dose: 200.0 mg/kg/injection, schedule: Q01DX009 (ip), vehicle: Klucel (hydroxypropylcellulose) (HPC)
[5] = dose: 400.0 mg/kg/injection, schedule: Q01DX009 (ip), vehicle: Klucel (hydroxypropylcellulose) (HPC)
[6] = dose: 12.5 mg/kg/injection, schedule: Q01DX009 (ip), vehicle: Klucel (hydroxypropylcellulose) (HPC)
[7] = dose: 25.0 mg/kg/injection, schedule: Q01DX009 (ip), vehicle: Klucel (hydroxypropylcellulose) (HPC)
[8] = dose: 50.0 mg/kg/injection, schedule: Q01DX009 (ip), vehicle: Klucel (hydroxypropylcellulose) (HPC)
[9] = dose: 100.0 mg/kg/injection, schedule: Q04DX003 (ip), vehicle: Klucel (hydroxypropylcellulose) (HPC)
[10] = dose: 200.0 mg/kg/injection, schedule: Q04DX003 (ip), vehicle: Klucel (hydroxypropylcellulose) (HPC)
[11] = dose: 400.0 mg/kg/injection, schedule: Q04DX003 (ip), vehicle: Klucel (hydroxypropylcellulose) (HPC)

Measured: T/C

C1CN2CCOB(O1)OCC2
inactive: dose: 69.0 mg/kg/injection, schedule: Q01DX009 (ip), vehicle: other 103 % of control | dose: 138.0 mg/kg/injection, schedule: Q01DX009 (ip), vehicle: other 98 % of control | dose: 275.0 mg/kg/injection, schedule: Q01DX009 (ip), vehicle: other 98 % of control

CCOC(=O)c1cnc(OCC)nc1Nc1ccccc1Br
inactive: dose: 100.0 mg/kg/injection, schedule: Q01DX001 (ip), vehicle: Klucel (hydroxypropylcellulose) (HPC) 100 % of control | dose: 200.0 mg/kg/injection, schedule: Q01DX001 (ip), vehicle: Klucel (hydroxypropylcellulose) (HPC) 95 % of control | dose: 400.0 mg/kg/injection, schedule: Q01DX001 (ip), vehicle: Klucel (hydroxypropylcellulose) (HPC) 97 % of control

COc1ccc(OC(=O)Nc2ccccc2C)cc1
inactive: dose: 50.0 mg/kg/injection, schedule: Q04DX002 (ip), vehicle: Klucel (hydroxypropylcellulose) (HPC) 104 % of control | dose: 100.0 mg/kg/injection, schedule: Q04DX002 (ip), vehicle: Klucel (hydroxypropylcellulose) (HPC) 100 % of control and 101 % of control | dose: 200.0 mg/kg/injection, schedule: Q04DX002 (ip), vehicle: Klucel (hydroxypropylcellulose) (HPC) 101 % of control | dose: 400.0 mg/kg/injection, schedule: Q04DX002 (ip), vehicle: Klucel (hydroxypropylcellulose) (HPC) 104 % of control and 111 % of control

CC(=O)Oc1ccc(N(CCO)CCO)cc1OC(C)=O
inactive: dose: 1.17 mg/kg/injection, schedule: Q01DX001 (ip), vehicle: water 103 % of control | dose: 2.34 mg/kg/injection, schedule: Q01DX001 (ip), vehicle: water 97 % of control | dose: 4.68 mg/kg/injection, schedule: Q01DX001 (ip), vehicle: water 100 % of control

CCOC(=O)NN(C(=O)OCC)C1COCCO1 (configuration not stated)
inactive: dose: 50.0 mg/kg/injection, schedule: Q04DX002 (ip), vehicle: saline 98 % of control | [1] 103 % of control | [2] 103 % of control

O=Cc1ccc(OC(=O)Nc2ccc([N+](=O)[O-])cc2)cc1
inactive: [3] 92 % of control | [4] 90 % of control | [5] 95 % of control

Cc1cccc(C=O)c1
inactive: dose: 100.0 mg/kg/injection, schedule: Q01DX001 (ip), vehicle: saline 102 % of control | dose: 200.0 mg/kg/injection, schedule: Q01DX001 (ip), vehicle: saline 96 % of control | dose: 400.0 mg/kg/injection, schedule: Q01DX001 (ip), vehicle: saline 96 % of control

C[N+]1(C)C2CC(=O)CC1C1CC12 (configuration not stated) (tested in a mixture with another compound)
inactive: dose: 50.0 mg/kg/injection, schedule: Q01DX009 (ip), vehicle: saline 106 % of control | dose: 100.0 mg/kg/injection, schedule: Q01DX009 (ip), vehicle: saline 108 % of control | dose: 100.0 mg/kg/injection, schedule: Q04DX003 (ip), vehicle: saline 94 % of control | dose: 200.0 mg/kg/injection, schedule: Q01DX009 (ip), vehicle: saline 90 % of control | dose: 200.0 mg/kg/injection, schedule: Q04DX003 (ip), vehicle: saline 100 % of control

CSc1ccc(OC(=O)Nc2cc([N+](=O)[O-])ccc2F)cc1C
inactive: dose: 100.0 mg/kg/injection, schedule: Q04DX002 (ip), vehicle: saline with Tween-80 89 % of control | [1] 92 % of control | dose: 200.0 mg/kg/injection, schedule: Q04DX002 (ip), vehicle: saline with Tween-80 93 % of control | [2] 110 % of control | dose: 400.0 mg/kg/injection, schedule: Q04DX002 (ip), vehicle: saline with Tween-80 91 % of control | dose: 800.0 mg/kg/injection, schedule: Q04DX002 (ip), vehicle: saline with Tween-80 93 % of control

COc1ccc(-n2c(=O)c(N=Nc3ccc(Cl)cc3)c(O)n(-c3ccccc3C)c2=S)cc1
inactive: dose: 37.5 mg/kg/injection, schedule: Q01DX001 (ip), vehicle: Klucel (hydroxypropylcellulose) (HPC) 96 % of control | dose: 75.0 mg/kg/injection, schedule: Q01DX001 (ip), vehicle: Klucel (hydroxypropylcellulose) (HPC) 90 % of control | dose: 150.0 mg/kg/injection, schedule: Q01DX001 (ip), vehicle: Klucel (hydroxypropylcellulose) (HPC) 92 % of control

CCOCCOCCOC(C)Oc1ccccc1 (configuration not stated)
inactive: [1] 104 % of control | [2] 111 % of control | dose: 400.0 mg/kg/injection, schedule: Q04DX002 (ip), vehicle: saline 104 % of control

NS(=O)(=O)c1ccc(N=Nc2ncc(CCNC3=CC(=O)C(=O)c4ccccc43)[nH]2)cc1
inactive: [6] 93 % of control | [7] 96 % of control | [8] 96 % of control and 92 % of control

C(=C\c1cc[n+](CCc2ccccc2)cc1)/c1ccccc1
inactive: dose: 6.25 mg/kg/injection, schedule: Q04DX003 (ip), vehicle: saline with Tween-80 110 % of control | dose: 12.5 mg/kg/injection, schedule: Q04DX003 (ip), vehicle: saline with Tween-80 89 % of control | dose: 25.0 mg/kg/injection, schedule: Q04DX003 (ip), vehicle: saline with Tween-80 101 % of control

CC(=O)OCC1OC([S][Sb]([CH3])[CH3])C(OC(C)=O)C(OC(C)=O)C1OC(C)=O (configuration not stated)
inactive: [6] 96 % of control | [7] 102 % of control | [8] 93 % of control

COc1ccc2[nH]c3c(c2c1)CSc1ccccc1-3
inactive: [3] 110 % of control | [4] 104 % of control | [5] 94 % of control

O=C(Nc1ccc(Cl)cc1)C(Cl)Cl
inactive: [3] 98 % of control | [9] 100 % of control | [4] 98 % of control | [10] 100 % of control | [5] 102 % of control | [11] 102 % of control

CNS(=O)(=O)c1ccc(C(N)=S)cc1
inactive: dose: 100.0 mg/kg/injection, schedule: Q01DX001 (ip), vehicle: gum acacia 93 % of control | dose: 200.0 mg/kg/injection, schedule: Q01DX001 (ip), vehicle: gum acacia 106 % of control | dose: 400.0 mg/kg/injection, schedule: Q01DX001 (ip), vehicle: gum acacia 98 % of control

CCCCCCCCCCC(=O)N(CCC)CCC
inactive: dose: 100.0 mg/kg/injection, schedule: Q01DX009 (ip), vehicle: carboxymethylcellulose (CMC) 97 % of control | dose: 100.0 mg/kg/injection, schedule: Q04DX002 (ip), vehicle: carboxymethylcellulose (CMC) 91 % of control | dose: 200.0 mg/kg/injection, schedule: Q01DX009 (ip), vehicle: carboxymethylcellulose (CMC) 93 % of control and 92 % of control | dose: 200.0 mg/kg/injection, schedule: Q04DX002 (ip), vehicle: carboxymethylcellulose (CMC) 93 % of control | dose: 400.0 mg/kg/injection, schedule: Q01DX009 (ip), vehicle: carboxymethylcellulose (CMC) 86 % of control | dose: 400.0 mg/kg/injection, schedule: Q04DX002 (ip), vehicle: carboxymethylcellulose (CMC) 88 % of control

O=S(=O)(Cc1ccc(Cl)cc1)Cc1ccc(Cl)cc1
inactive: dose: 100.0 mg/kg/injection, schedule: Q01DX009 (ip), vehicle: saline sonified 93 % of control | [9] 95 % of control | dose: 200.0 mg/kg/injection, schedule: Q01DX009 (ip), vehicle: saline sonified 93 % of control | [10] 92 % of control | dose: 400.0 mg/kg/injection, schedule: Q01DX009 (ip), vehicle: saline sonified 93 % of control | [11] 103 % of control
